From ChEMBL document CHEMBL1201862, “PubChem BioAssay data set” (2004)
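48-hour exposure; five concentrations; linearly interpolated endpoints. At the GI50, growth is halved.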 Active and inactive are the calls of the source. No stated cut-off is given here; in the data, active = GI50 up to about 1.1 µM and inactive = higher.

What was measured:
Assay in all cases: NCI anticancer screen, dose series, 48 h
BT-549 = tested on: BT-549
MDA-MB-231 = tested on: MDA-MB-231
MDA-N = tested on: MDA-N
T47D = tested on: T47D
MCF7 = tested on: MCF7

SMILES | GI50 (BT-549) | GI50 (MDA-MB-231) | GI50 (MDA-N) | GI50 (T47D) | GI50 (MCF7)
COC(=O)C1=C(OC(=O)/C(=C/c2ccc(Cl)cc2)c2ccc(Cl)cc2)C(C(=O)OC)[C@]2(O)[C@@H](C(=O)OC)[C@H]1C[C@@H](c1ccccc1)[C@@H]2C(=O)OC (stereo not given in full) | 90.4 µM (inactive) | 50.6 µM (inactive) | > 100 µM (inactive) | > 100 µM (inactive) | –
COc1cc(/C=C(\C#N)C(N)=O)cc(Br)c1O | – | – | – | – | 95.1 µM (inactive)
